Assay results taken from the OPERA property sets (Mansouri et al. 2018).
Peptide text beside a SMILES is read from it.

Structure (SMILES)	logP
CN(C)CCC(c1ccc(Cl)cc1)c1ccccn1 (stereo not given)	3.38
CCCC(=O)Nc1ccccc1	2.05
Oc1cccc2c(O)cccc12	1.94
O=[As](O)(O)c1ccccc1	0.06
CCCCOC(=O)n1cnc(CSCCNC(=NC#N)NC)c1C	2.15
CCOC(C)OCC	0.84
Cc1cccc(C)c1	3.2
CC(Cl)(Cl)C(=O)O	0.78
CC1CN(N=O)CC(C)N1 (stereo not given)	0.73
CCc1ccccc1S(I)=C(N(C)C)N(C)C (stereo not given)	0.32
Nc1ccccc1[N+](=O)[O-]	1.85
CN(c1ccccc1)c1ccccc1	3.9
O=NN(CCCl)C(=O)NC1CCCC1	2.2
Cc1ccc2cc3c(ccc4ccccc43)c3c2c1CC3	6.42
O=C(O)c1cc(Cl)ccc1O	3.09
CC(=O)N(c1ccccc1)c1ccccc1	2.02
c1ccc(Cn2nccn2)cc1	1.56
CC(=O)CC(C)=O	0.4
CN(C)CCOC(=O)c1ccccc1	2.06
CC(=O)N[C@H](C(=O)N[C@H](C(N)=O)C(C)C)[C@@H](C)O (Ac-Thr-Val-NH2)	-1.25
c1cncc(CN2CCCC2)c1	1.1
CC(=O)c1ccccc1N	1.63
OCC(Cl)(Cl)Cl	1.42
CCCCC(=O)OC	1.96
COc1ccc(N2C(=O)CCC2=O)cc1	0.15

Structure (SMILES)	logP
COc1ccc2c(c1)nc(N)n2C	0.87
O=[N+]([O-])c1ccc(C=Cc2ncccn2)o1	1.34
CC(=O)Oc1cccc(Cl)c1	2.32
Cc1ccc2ccccc2c1	3.86
COC(=O)c1ccccn1	0.36
CCC(C)(C)C(=O)O	1.9
COCCOCC1COC(c2ccc(Cl)cc2Cl)(n2cncn2)O1 (stereo not given)	2.03
CCOC(=O)C(C#N)=NNc1ccccc1Cl	3.38
CN(Cc1ccc(C#N)cc1)N=O	0.95
CN(C(=O)c1ccccc1)c1ccccc1	2.36
Cc1ccccc1OCC(=O)NNC(C)C	1.83
Oc1ccc(I)cc1	2.91
COc1cc(NC(=O)NC(=N)N)ccc1C#N	1.28
COc1ccccc1OC(C)=O	1.38
CC(Oc1ccc(Cl)cc1)C(=O)O (stereo not given)	2.31
Cc1cccc(OC(=O)N(C)C)c1	2.05
Nc1ccc(S(=O)(=O)c2ccc(F)cc2)cc1	2.17
CCNc1nc(NC(C)(C)C)nc(SC)n1	3.74
c1ccc(COc2ccccc2)cc1	3.79
CC(=O)c1ccc([N+](=O)[O-])cc1	1.53
C1CO1	-0.3
CC(=O)N[C@H](C(=O)N[C@H](C(N)=O)C(C)C)C(C)C (Ac-Val-Val-NH2)	-0.32
O=C(NP(=O)(N1CC1)N1CC1)c1cccc(Br)c1	1.43
Nc1cccc([N+](=O)[O-])c1N	1.27
N#Cc1ccc(S(N)(=O)=O)cc1	0.23

Structure (SMILES)	logP
CCC(=O)C1(c2cccc(OC(=O)CC(C)(C)C)c2)CCN(C)CC1	3.17
CC1CCCC(C)N1N=O (stereo not given)	1.36
CCCCc1ccc(C(=O)O)cc1	3.97
O=C(Nc1ccccc1)NC1CC1	1.65
CNc1ncnc2c1ncn2C1CC(O)C(CO)O1 (stereo not given)	-0.19
CNC(=O)ON=CC(C)(C)SC	1.13
CCCCCCCN	2.57
CCOC(=O)Cc1ccccc1	2.28
CC#CC	1.46
FC(F)Cl	1.08
c1ccc2c(c1)ccc1ccccc12	4.46
CNC(=O)Oc1ccc(Cl)c(Cl)c1	2.8
FC(F)(F)C(Cl)Br (stereo not given)	2.3
CCSc1ccccc1	3.2
O=C(O)c1cccc(O)c1O	1.2
O=C(CNC(=O)c1ccccc1)Oc1cccc([N+](=O)[O-])c1	2.46
COc1ccc(I)cc1Cc1cnc(N)nc1N	2.7
COc1ccc(O)cc1	1.58
OCCCCCc1cccnc1	1.41
Nc1nc(N)nc(-c2ccccc2Br)n1	1.26
Cc1ccc([N+](=O)[O-])cn1	0.99
NCCCc1ccccc1	1.83
BrCCc1ccccc1	3.09
NC(=O)CCCCc1ccncc1	0.42
N#Cc1ccc(CC(=O)Nc2ccccc2)cc1	2.82

Structure (SMILES)	logP
O=C1CCCCO1	-0.35
c1cncc(CCN2CCCC2)c1	1.34
O=Cc1ccc(Cl)cc1	2.1
CCOC(C)=O	0.73
Brc1ccc2ncccc2c1	2.83
O=C(Nc1ccccc1)c1cccnc1	1.73
O=C(C(F)(F)F)C(F)(F)F	1.46
O=C1OCc2ccccc21	0.8
c1cnc2[nH]ccc2c1	1.82
O=C(O)c1c2ccccc2cc2ccccc12	3.85
Clc1ccc2nccnc2c1	2.1
Cc1cc(C)nc(C)c1	1.88
O=Nc1ccc(O)cc1	1.29
CN(C)C(=O)Nc1cccc(Cl)c1	2
NC(=O)c1ccc(I)cc1	1.99
OCC(Cl)Cl	0.37
CCNC(=O)c1ccccc1	1.28
NC[C@H](O)c1ccc(O)c(O)c1	-1.24
c1ccc2c(c1)Cc1ccccc1-2	4.18
CC1CC2C3CCC4=CC(=O)C=CC4(C)C3(F)C(=O)CC2(C)C1(O)C(=O)CCl (stereo not given)	2.61
COC(=O)c1cnc2ccccc2c1	2.25
CCOC(=O)C(=Cc1ccc(O)c(OC)c1)C(=O)OCC	2.89
CCCCN1CCCCC1C(=O)Nc1c(C)cccc1C (stereo not given)	3.41
CC(C(c1ccccc1)c1ccccc1)[N+](=O)[O-] (stereo not given)	3.91
CN(C)CCOC(=O)c1ccc([N+](=O)[O-])cc1	1.7

Structure (SMILES)	logP
COc1cc2c(c(OC)c1OC)-c1ccc(O)c(=O)cc1C(NC(C)=O)CC2 (stereo not given)	1.2
O=C(CNC(=O)c1ccccc1)Oc1ccccc1	2.31
CN(C)C(=O)OCc1ccc(I)cc1	3.32
Clc1cccc(-c2cc(Cl)ccc2Cl)c1	5.76
O=C(c1ccccc1)C(F)(F)F	2.15
O=C1C=C(N2CC2)C(=O)C(N2CC2)=C1N1CC1	-0.13
COCC(=O)N(c1c(C)cccc1C)C(C)C(=O)OC (stereo not given)	1.65
CCC(N)Cc1ccccc1 (stereo not given)	2.28
COP(=O)(NC(C)=O)SC (stereo not given)	-0.85
Clc1ccc(Cl)c(Cl)n1	2.77
CCC1(c2ccccc2)CCC(=O)NC1=O (stereo not given)	1.9
NC(=O)CCCCc1ccccn1	0.38
CC(=O)c1cccc(NC(=O)N(C)C)c1	0.95
CCCOc1ccccc1	3.18
Clc1ccc(-c2cc(Cl)c(Cl)cc2Cl)cc1	6.67
CN1CCOCC1	-0.33
CC(=O)CCC1CC1	1.5
COc1cccc(OC(=O)N(C)C)c1	1.6
Cc1ccc([N+](=O)[O-])cc1N	1.87
Cc1ccc(N)c(C)c1	1.68
NC(=O)CCc1cccnc1	-0.26
CC1(C)O[C@@H]2C[C@H]3[C@@H]4CCC5=CC(=O)C=C[C@]5(C)[C@@]4(F)[C@@H](O)C[C@]3(C)[C@]2(C(=O)CO)O1	2.53
Nc1cccc2cc3ccccc3nc12	3.26
Cn1c([N+](=O)[O-])cnc1-c1ccc(C(N)=O)cc1	0.98
CCCCOc1cc(C(=O)NCCN(CC)CC)c2ccccc2n1	4.4

Structure (SMILES)	logP
COP(=O)(OC)OC(=CCl)c1cc(Cl)c(Cl)cc1Cl	3.53
OCCc1cccnc1	0.12
COc1cccc(N)c1	0.93
Cc1c(I)c(=O)n(-c2ccccc2)n1C	1.27
O=S(c1ccccc1)c1ccccc1	2.06
CCN(CC)CCOC(=O)C=Cc1ccc(OC)cc1	3.55
NC12CC3CC(CC(C3)C1)C2	2.44
Cc1ccc(S(I)=C(N(C)C)N(C)C)cc1 (stereo not given)	-0.1
Cc1cccc(C(=O)NN)c1	0.74
Cc1ccc(Cl)cc1NC1=NCCN1	1.83
C[C@@H](O)c1ccccc1	1.42
CCCCC(=O)OCC(=O)C1(O)CCC2C3CCC4=CC(=O)CCC4(C)C3C(O)CC21C (stereo not given)	3.62
NC(=O)c1ncn2c(=O)n(CCCl)nnc12	-0.47
CCc1nnc(NS(=O)(=O)c2ccc(N)cc2)s1	1.01
CCCCN(C)C	1.7
CCCS	1.81
CCN(CC)CCNC(=O)c1ccccc1	1.99
CN1CCN(C)CC1	-0.4
C[C@]12CCC(=O)C=C1CC[C@@H]1[C@@H]2CC[C@]2(C)C(=O)CC[C@@H]12	2.75
CC1=NN(CCOc2ccc3ccccc3c2)C(=O)C1	2.74
CC(C)C(=O)Nc1ccccc1	1.95
Nc1ccc(F)cc1F	1.54
O=C(O)CCCCCN1C(=O)C=CC1=O	1.15
O=C(Nc1ccccc1)Nc1ccccc1	3
O=C(O)C1c2ccccc2-c2ccccc21	2.8

Structure (SMILES)	logP
O=C(CC(=O)C(F)(F)F)c1cccs1	1.46
CNc1nc(NC(C)(C)C)nc(SC(F)F)n1	3.91
O=C(OCn1ncc2c(=O)[nH]cnc21)c1cccc(CN2CCOCC2)c1	1.13
Cc1cc2occ(C)c2c2oc(=O)ccc12	3.02
CCCCOC(=O)c1cc(O)c(O)c(O)c1	2.41
NC(=O)CCCc1cccnc1	-0.08
COC(=O)[C@@H]1C2CCC(C[C@@H]1OC(=O)c1ccccc1)N2C (stereo not given in full)	2.3
Cc1[nH]ncc1[N+](=O)[O-]	1.02
COC(COC(N)=O)C1=C(N2CC2)C(=O)C(C)=C(N2CC2)C1=O (stereo not given)	-0.15
CN(C)CC=Cc1ccccc1	2.61
O=c1[nH]ncc2ccccc12	0.75
NS(=O)(=O)c1cc2c(cc1Cl)NC(CC1CCCC1)NS2(=O)=O (stereo not given)	1.27
COc1ccc(CO)cc1	1.1
Nc1cccc(N)c1	-0.33
CCCC(N)Cc1ccccc1 (stereo not given)	2.79
COc1cc([C@@H]2c3cc4c(cc3C(O[C@@H]3O[C@@H]5COC(c6cccs6)O[C@H]5[C@H](O)[C@H]3O)C3COC(=O)[C@@H]32)OCO4)cc(OC)c1O (stereo not given in full)	1.24
C[C@]12CC[C@H](O)CC1=CC[C@@H]1[C@@H]2CC[C@]2(C)C(=O)CC[C@@H]12	3.23
Cc1ccnc2c(O)cccc12	2.41
O=C(CN1CCCCC1)Nc1ccc(I)cc1	3.9
CCCCOc1ccc(C(=O)O)cc1	3.57
